Assay: log P determination by HPLC on reverse-phase column (EEC Directive 79/831 Annex V.A8)
Format: physicochemical
Settings: not given
Procedure: The log P values stated in the foregoing tables and preparation examples are determined in accordance with EEC Directive 79/831 Annex V.A8 by means of HPLC (High Performance Liquid Chromatography) on a reverse-phase column (C 18). Temperature: 43° C.
The determination by LC-MS in the acidic range takes place at a pH of 2.7 using 0.1% aqueous formic acid and acetonitrile (containing 0.1% formic acid) as eluents; linear gradient from 10% acetonitrile to 95% acetonitrile.
Calibration is with unbranched alkan-2-ones (having 3 to 16 carbon atoms) of known log P value (log P values determined from the retention times by linear interpolation between two successive alkanones).

Compound	logP
Cc1cc(Cl)cc(C(=O)NC(C)C)c1NC(=O)c1cc(Cn2nnn(-c3ccc(Cl)cc3)c2=O)nn1-c1ncccc1Cl [I-1-168]	3.79
Cc1cc(C#N)cc(C(N)=O)c1NC(=O)c1cc(Cn2nc(C(F)(F)F)nc2C(F)(F)F)nn1-c1ncccc1Cl [I-1-179]	2.91
O=C(NC1CC1)c1cc(Cl)cc(Cl)c1NC(=O)c1cc(Cn2nc(C(F)(F)F)cc2C(F)(F)F)nn1-c1ncccc1Cl [I-1-300]	3.19
NC(=O)c1cc(Cl)cc(Cl)c1NC(=O)c1cc(Cn2nc(C(F)(F)F)nc2C(F)(F)F)nn1-c1ncccc1Cl [I-1-298]	2.61
Cc1cc(C#N)cc(C(=O)NC(C)C)c1NC(=O)c1cc(Cn2ccc(C(F)(F)F)n2)nn1-c1ncccc1Cl [I-1-182]	2.96
Cc1cc(C#N)cc(C(=O)NC(C)C)c1NC(=O)c1cc(Cn2cnc(C(F)(F)C(F)(F)F)n2)nn1-c1ncccc1Cl [I-1-354]	2.23
Cc1cc(I)cc(C(N)=O)c1NC(=O)c1cc(Cn2ccc(C(F)(F)F)n2)nn1-c1ncccc1Cl [I-1-273]	2.84
CC(C)NC(=O)c1cc(Cl)cc(Cl)c1NC(=O)c1cc(Cn2cnc(C(F)(F)C(F)(F)F)n2)nn1-c1ncccc1Cl [I-1-340]	2.55
O=C(NC1CC1)c1cc(Cl)cc(Cl)c1NC(=O)c1cc(Cn2cnc(C(F)(F)C(F)(F)F)n2)nn1-c1ncccc1Cl [I-1-344]	2.37
Cc1cc(I)cc(C(=O)N(C)C)c1NC(=O)c1cc(Cn2nc(C(F)(F)F)cc2C(F)(F)F)nn1-c1ncccc1Cl [I-1-256]	3.84
CNC(=O)c1cc(Cl)cc(C)c1NC(=O)c1cc(Cn2nnc(-c3ccccc3)n2)nn1-c1ncccc1Cl [I-1-165]	3.09
CC(C)NC(=O)c1cc(Cl)cc(Cl)c1NC(=O)c1cc(Cn2cc(Cl)c(C(F)(F)C(F)(F)F)n2)nn1-c1ncccc1Cl [I-1-309]	3.53
CNC(=O)c1cc(C#N)cc(C)c1NC(=O)c1cc(Cn2cc(C(F)(F)C(F)(F)F)c(C(F)(F)C(F)(F)F)n2)nn1-c1ncccc1Cl [I-1-170]	4.08
CNC(=O)c1cc(Cl)cc(C)c1NC(=O)c1cc(C(=NOC)n2nc(C(F)(F)F)cc2C(F)(F)F)nn1-c1ncccc1Cl [I-1-355]	4.07
Cc1cc(Cl)cc(C(=O)NC(C)CS(C)(=O)=O)c1NC(=O)c1cc(Cn2cc(Cl)c(C(F)(F)C(F)(F)F)n2)nn1-c1ncccc1Cl (stereo not drawn) [I-1-213]	3.60
Cc1cc(I)cc(C(=O)NC(C)C2CC2)c1NC(=O)c1cc(Cn2nc(C(F)(F)F)nc2C(F)(F)F)nn1-c1ncccc1Cl (stereo not drawn) [I-1-284]	4.16
Cc1cc(Cl)cc(C(=O)NC2CC2)c1NC(=O)c1cc(Cn2cnc(C(F)(F)C(F)(F)F)n2)nn1-c1ncccc1Cl [I-1-345]	2.42
Cc1cc(C#N)cc(C(N)=O)c1NC(=O)c1cc(Cn2cc(C(F)(F)C(F)(F)F)c(C(F)(F)C(F)(F)F)n2)nn1-c1ncccc1Cl [I-1-192]	3.91
Cc1cc(C#N)cc(C(N)=O)c1NC(=O)c1cc(Cn2ccc(C(F)(F)F)n2)nn1-c1ncccc1Cl [I-1-184]	2.42
Cc1cc(I)cc(C(=O)NC2CCC2)c1NC(=O)c1cc(Cn2nc(C(F)(F)F)nc2C(F)(F)F)nn1-c1ncccc1Cl [I-1-282]	4.18
CNC(=O)c1cc(Cl)cc(C)c1NC(=O)c1cc(Cn2nc(C(F)F)c([N+](=O)[O-])c2C(F)F)nn1-c1ncccc1Cl [I-1-257]	2.92
CNC(=O)c1cc(Cl)cc(C)c1NC(=O)c1cc(Cn2cnc(C(F)(F)C(F)(F)F)n2)nn1-c1ncccc1Cl [I-1-347]	2.19
Cc1cc(Cl)cc(C(=O)NC(C)C)c1NC(=O)c1cc(Cn2cnc(C(F)(F)C(F)(F)F)n2)nn1-c1ncccc1Cl [I-1-334]	2.66
NC(=O)c1cc(Cl)cc(Cl)c1NC(=O)c1cc(Cn2cc(C(F)(F)C(F)(F)F)c(C(F)(F)C(F)(F)F)n2)nn1-c1ncccc1Cl [I-1-296]	3.43
Cc1cc(C#N)cc(C(=O)NC(C)C)c1NC(=O)c1cc(Cn2nc(C(F)(F)F)cc2C(F)(F)F)nn1-c1ncccc1Cl [I-1-187]	3.80
Cc1cc(Cl)cc(C(=O)NC(C)C)c1NC(=O)c1cc(Cn2cnc(C(C)(C)C)n2)nn1-c1ncccc1Cl [I-1-161]	2.87

Same assay, conditions: HPLC on reverse-phase column

Compound	logP
CSCC(C)(C)NC(=O)c1cc(Br)cc(C)c1NC(=O)c1cc(Cn2cc(Br)c(C(F)(F)F)n2)nn1-c1ncccc1Cl [I-1-98]	4.47
Cc1cc(Cl)cc(C(=O)NCC#N)c1NC(=O)c1cc(Cn2nnn(-c3cc(C(F)(F)F)cc(C(F)(F)F)c3)c2=O)nn1-c1ncccc1Cl [I-1-95]	4.01
CCNC(=O)OC[C@H](C)NC(=O)c1cc(Cl)cc(C)c1NC(=O)c1cc(Cn2nc(C(F)(F)F)nc2C(F)(F)F)nn1-c1ncccc1Cl [I-1-77]	3.58
CNC(=O)c1cc(Cl)cc(C)c1NC(=O)c1cc(Cn2cc(C(F)(F)F)cn2)nn1-c1ncccc1Cl [I-1-42]	2.76
CSCC(C)(C)NC(=O)c1cc(Br)cc(C)c1NC(=O)c1cc(Cn2nc(C(F)(F)F)nc2C(F)(F)F)nn1-c1ncccc1Cl [I-1-134]	4.63
CNC(=O)c1cc(Cl)cc(C)c1NC(=O)c1cc(Cn2nnn(-c3ccc(Cl)cc3)c2=O)nn1-c1ncccc1Cl [I-1-38]	3.28
Cc1cc(Br)cc(C(N)=O)c1NC(=O)c1cc(Cn2nc(C(F)(F)F)cc2C(F)(F)F)nn1-c1ncccc1Cl [I-1-61]	3.53
Cc1cc(Cl)cc(C(N)=O)c1NC(=O)c1cc(Cn2cc(C(F)(F)C(F)(F)F)c(C(F)(F)C(F)(F)F)n2)nn1-c1ncccc1Cl [I-1-48]	4.15
Cc1cc(Br)cc(C(=O)NCC#N)c1NC(=O)c1cc(Cn2nc(C(F)(F)F)cc2C(F)(F)F)nn1-c1ncccc1Cl [I-1-59]	3.65
Cc1cc(Cl)cc(C(=O)NC(C)(C)CS(C)(=O)=O)c1NC(=O)c1cc(Cn2cc(Br)c(C(F)(F)F)n2)nn1-c1ncccc1Cl [I-1-145]	3.56
Cc1cc(Cl)cc(C(=O)NC(C)C)c1NC(=O)c1cc(Cn2nnn(C)c2=O)nn1-c1ncccc1Cl [I-1-115]	2.31
CNC(=O)c1cc(Cl)cc(C)c1NC(=O)c1cc(Cn2nc(C(F)(F)F)nc2C(F)(F)F)nn1-c1c(Cl)cccc1Cl [I-1-41]	4.13

Same assay, conditions: HPLC, reverse-phase column (C 18), 43° C., acidic range pH 2.7

logP	Compound
4.23	Cc1cc(Cl)cc(C(=O)NCC#N)c1NC(=O)c1cc(Cn2nc(C(F)(F)F)cc2C(F)(F)F)nn1-c1ncc(C(F)(F)F)cc1Cl [I-2-18]
4.08	Cc1cc(Cl)cc(C(=O)NC(C)C)c1NC(=O)c1cc(Cn2nc(C(F)(F)F)cc2C(F)(F)F)nn1C [I-2-1]
4.63	Cc1cc(Br)cc(C(=O)NC2CC2)c1NC(=O)c1cc(Cn2nc(C(F)(F)F)cc2C(F)(F)F)nn1-c1ncc(C(F)(F)F)cc1Cl [I-2-24]
4.78	Cc1cc(Cl)cc(C(=O)NC(C)C)c1NC(=O)c1cc(Cn2nc(C(F)(F)F)cc2C(F)(F)F)nn1-c1ncc(C(F)(F)F)cc1Cl [I-2-11]
5.27	Cc1cc(Cl)cc(C(=O)NC(C2CC2)C2CC2)c1NC(=O)c1cc(Cn2nc(C(F)(F)F)cc2C(F)(F)F)nn1-c1ncc(C(F)(F)F)cc1Cl [I-2-14]

Compound	logP
CNC(=O)c1cc(Cl)cc(Cl)c1NC(=O)c1cc(Cn2nc(C(F)(F)F)cc2C(F)(F)F)nn1-c1ncc(C(F)(F)F)cc1Cl [I-2-23]	3.54

Same assay, conditions: reverse-phase C18 HPLC column; HPLC, reverse-phase column (C 18), 43° C., acidic range pH 2.7; read-out: logP

chromatographic logP	Compound
1.26	COC(=O)c1cc(CO)nn1-c1ncccc1Cl [Example 6, Methyl 2-(3-chloropyridin-2-yl)-5-hydroxymethyl-2H-pyrazole-3-carboxylate]

Reference: US8101550B2, “Anthranilic acid diamide derivative with hetero-aromatic and hetero-cyclic substituents” (Bayer Cropscience AG, priority 2006, dated 2012)
